35 compounds from patent US20090270435A1 (priority 2006, published 2009) can be followed below.

Where a name gives a salt, the structure may show the parent alone.

The target of the first assay is T1, ACC1 from rat liver (Rattus norvegicus, UniProt P11497).
T1 construct: The livers (for ACC1 preparation) or skeletal muscle tissue (for ACC2 preparation) are removed; from tissue; host or cells: liver of male CD rats (fasted, then fed a high sucrose diet)
The experiment in a line: Direct inhibition of ACC1 activity (14C-bicarbonate incorporation). It is filed as biochemical. The following applies: ACC1 from rat liver. A digest of the protocol:
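ACC1 partially purified from livers of fasted/sucrose-refed male rats by PEG and ammonium sulfate fractionation, then preincubated 30 min at 37°C with 10 mM citrate and 1.0 mM MgCl2. Reaction ran 7 min at 37°C, stopped with HCl; acid-stable radioactivity counted by scintillation; HCl-first tubes served as blanks.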
In turn, `O=C1CC2(CCN(C(=O)c3cccc4cn[nH]c34)CC2)Oc2cc(F)ccc21` [Ex. H19, 7-fluoro-1′-(1H-indazol-7-ylcarbonyl)spiro[chromene-2,4′-piperidin]-4(3H)-one] showed a concentration for half-maximal inhibition (IC50) of 2350 nM.
The compound `Cc1cc(C(=O)N2CCC3(CC2)CC(=O)c2cc(C(F)(F)F)ccc2O3)cc2cn[nH]c12` [Ex. A20, 1′-[(7-methyl-1H-indazol-5-yl)carbonyl]-6-(trifluoromethyl)spiro[chromene-2,4′-piperidin]-4(3H)-one] came in with an IC50 of 96.6 nM.
`Cc1cc2c(cc1C)C(=O)CC1(CCN(C(=O)c3ccc4c(C)nn(C)c4c3)CC1)O2` [Ex. G3, 1′-[(1,3-dimethyl-1H-indazol-6-yl)carbonyl]-6,7-dimethylspiro[chromene-2,4′-piperidin]-4(3H)-one] showed an IC50 of 75.4 nM. This IC50 and that of the compound before are within 1.5-fold of each other.
On the same count and under the same terms, the same measure for `Cc1cc2c(cc1C)C(=O)CC1(CCN(C(=O)c3cccc4[nH]cnc34)CC1)O2` [Ex. L17, 1′-(1H-benzimidazol-4-ylcarbonyl)-6,7-dimethylspiro[chromene-2,4′-piperidin]-4(3H)-one trifluoroacetic acid salt]: 885 nM; for `Cc1cc2c(cc1C)C(=O)CC1(CCN(C(=O)c3ccc4nc[nH]c4c3)CC1)O2` [Ex. L22, 1′-(1H-benzimidazol-5-ylcarbonyl)-6,7-dimethylspiro[chromene-2,4′-piperidin]-4(3H)-one trifluoroacetic acid salt]: 164 nM; for `Cc1cc2c(cc1Cl)OC1(CCN(C(=O)c3cccc4cn[nH]c34)CC1)CC2=O` [Ex. H2, 7-chloro-1′-(1H-indazol-7-ylcarbonyl)-6-methylspiro[chromene-2,4′-piperidin]-4(3H)-one]: 226 nM.
As to `Cc1cc(C(=O)N2CCC3(CC2)CC(=O)c2cc(Cl)ccc2O3)cc2cn[nH]c12` [Ex. A26, 6-chloro-1′-[(7-methyl-1H-indazol-5-yl)carbonyl]spiro[chromene-2,4′-piperidin]-4(3H)-one], half-maximal inhibition (IC50) was put at 113 nM.
On to `Cc1cc2c(cc1C)C(=O)CC1(CCN(C(=O)c3ccc4c(c3)CC(=O)N4)CC1)O2` [Ex. L13, 6,7-dimethyl-1′-[(2-oxo-2,3-dihydro-1H-indol-5-yl)carbonyl]spiro[chromene-2,4′-piperidin]-4(3H)-one], for which the IC50 is below 3000 nM.
`COc1cccc2c1C(=O)CC1(CCN(C(=O)c3ccc4[nH]cc(Cl)c4c3)CC1)O2` [Ex. L10, 1′-[(3-chloro-1H-indol-5-yl)carbonyl]-5-methoxyspiro[chromene-2,4′-piperidin]-4(3H)-one] had a 50% inhibitory concentration (IC50) of 101 nM.
As to `COc1cc(C)cc2c1C(=O)CC1(CCN(C(=O)c3cccc4cn[nH]c34)CC1)O2` [Ex. H4, 1′-(1H-indazol-7-ylcarbonyl)-5-methoxy-7-methylspiro[chromene-2,4′-piperidin]-4(3H)-one], the 50% inhibitory concentration (IC50) was found to be 279 nM.
As for `O=C1CC2(CCN(C(=O)c3cccc4cn[nH]c34)CC2)Oc2ccc(Cl)cc21` [Ex. H14, 6-chloro-1′-(1H-indazol-7-ylcarbonyl)spiro[chromene-2,4′-piperidin]-4(3H)-one], half-maximal inhibition (IC50) required 1390 nM. Against the preceding compound, the IC50 is about 5-fold higher.
Regarding `CCc1cc(C(=O)N2CCC3(CC2)CC(=O)c2cc(OC)ccc2O3)cc2cn[nH]c12` [Ex. C2, 1′-[(7-ethyl-1H-indazol-5-yl)carbonyl]-6-methoxyspiro[chromene-2,4′-piperidin]-4(3H)-one], the IC50 turned out to be 22.6 nM.
Regarding `Cc1nc2c(C(=O)N3CCC4(CC3)CC(=O)c3cc(C)c(C)cc3O4)cccc2[nH]1` [Ex. L19, 6,7-dimethyl-1′-[(2-methyl-1H-benzimidazol-4-yl)carbonyl]spiro[chromene-2,4′-piperidin]-4(3H)-one trifluoroacetic acid salt], the IC50 was below 3000 nM.
Consider `O=C1CC2(CCN(C(=O)c3ccc4c(Cl)c[nH]c4c3)CC2)Oc2ccc(Cl)cc21` [Ex. L7, 6-chloro-1′-[(3-chloro-1H-indol-6-yl)carbonyl]spiro[chromene-2,4′-piperidin]-4(3H)-one], for which the IC50 was found to be 183 nM. That is a sub-micromolar value.
Compound `CCc1nn(C)c2cc(C(=O)N3CCC4(CC3)CC(=O)c3cc(C)c(C)cc3O4)ccc12` [Ex. G4, 1′-[(3-ethyl-1-methyl-1H-indazol-6-yl)carbonyl]-6,7-dimethylspiro[chromene-2,4′-piperidin]-4(3H)-one] showed an IC50 of 80.1 nM. Against the preceding compound, the IC50 is about 2.3-fold lower.
In the case of `Cc1cc2c(cc1C)C(=O)CC1(CCN(C(=O)c3cccc4cc[nH]c34)CC1)O2` [Ex. L1, 1′-(1H-indol-7-ylcarbonyl)-6,7-dimethylspiro[chromene-2,4′-piperidin]-4(3H)-one trifluoroacetic acid salt], the half-maximal inhibitory concentration (IC50) was 190 nM.
As for `CCc1cc(C(=O)N2CCC3(CC2)CC(=O)c2c(OC)cc(C)cc2O3)cc2cn[nH]c12` [Ex. C3, 1′-[(7-ethyl-1H-indazol-5-yl)carbonyl]-5-methoxy-7-methylspiro[chromene-2,4′-piperidin]-4(3H)-one], the IC50 turned out to be 29.5 nM.
As to `Cc1cc2c(cc1C)C(=O)CC1(CCN(C(=O)c3ccc4c(c3)nnn4C)CC1)O2` [Ex. L41, 6,7-dimethyl-1′-[(1-methyl-1H-1,2,3-benzotriazol-5-yl)carbonyl]spiro[chromene-2,4′-piperidin]-4(3H)-one], the 50% inhibitory concentration (IC50) is below 3000 nM.
Turning to `Cc1cc2c(cc1C)C(=O)CC1(CCN(C(=O)c3ccc4[nH]nnc4c3)CC1)O2` [Ex. L39, 1′-(1H-1,2,3-benzotriazol-5-ylcarbonyl)-6,7-dimethylspiro[chromene-2,4′-piperidin]-4(3H)-one trifluoroacetic acid salt], the IC50 came out at 362 nM. This counts as sub-micromolar.
As to `CCc1cc(C(=O)N2CCC3(CC2)CC(=O)c2cc(Cl)c(C)cc2O3)cc2cn[nH]c12` [Ex. C4, 6-chloro-1′-[(7-ethyl-1H-indazol-5-yl)carbonyl]-7-methylspiro[chromene-2,4′-piperidin]-4(3H)-one], it took 30.6 nM to reach half-maximal inhibition (IC50). Compared with the last compound, the IC50 is about 12-fold lower.
Turning to “1′-1H-indol ylcarbonyl)-6,7-dimethylspiro[chromene-2,4′-piperidin]-4(3H)-one trifluoroacetic acid salt [Ex. L14]”, the 50% inhibitory concentration (IC50) amounted to 479 nM.
Take `Cc1cc(C(=O)N2CCC3(CC2)CC(=O)c2ccc(Cl)cc2O3)cc2cn[nH]c12` [Ex. A17, 7-chloro-1′-[(7-methyl-1H-indazol-5-yl)carbonyl]spiro[chromene-2,4′-piperidin]-4(3H)-one]: it took 70.5 nM to reach half-maximal inhibition (IC50).
The same measure, in the same setting: to `O=C1CC2(CCN(C(=O)c3ccc4[nH]nnc4c3)CC2)Oc2ccc(Cl)cc21` [Ex. L38, 1′-(1H-1,2,3-benzotriazol-5-ylcarbonyl)-6-chlorospiro[chromene-2,4′-piperidin]-4(3H)-one] belongs below 1000 nM; to `Cc1cc2c(cc1C)C(=O)CC1(CCN(C(=O)c3cc(C)c4[nH]nc(C)c4c3)CC1)O2` [Ex. E3, 1′-[(3,7-dimethyl-1H-indazol-5-yl)carbonyl]-6,7-dimethylspiro[chromene-2,4′-piperidin]-4(3H)-one], 9.8 nM.
For `COc1cccc2c1C(=O)CC1(CCN(C(=O)c3ccc4[nH]c5c(c4c3)CCNC5=O)CC1)O2` [Ex. K2, 5-methoxy-1′-[(1-oxo-2,3,4,9-tetrahydro-1H-beta-carbolin-6-yl)carbonyl]spiro[chromene-2,4′-piperidin]-4(3H)-one], the 50% inhibitory concentration (IC50) came to 28.8 nM.
Turning to `Cc1cc(C(=O)N2CCC3(CC2)CC(=O)c2ccc(-c4ccccc4)cc2O3)cc2cn[nH]c12` [Ex. A34, 1′-[(7-methyl-1H-indazol-5-yl)carbonyl]-7-phenylspiro[chromene-2,4′-piperidin]-4(3H)-one], it took 395 nM to reach half-maximal inhibition (IC50).
Compound `Cc1cc(C(=O)N2CCC3(CC2)CC(=O)c2cc(C(C)C)ccc2O3)cc2cn[nH]c12` [Ex. A23, 6-isopropyl-1′-[(7-methyl-1H-indazol-5-yl)carbonyl]spiro[chromene-2,4′-piperidin]-4(3H)-one] showed an IC50 of 109 nM.
For `COc1cccc2c1C(=O)CC1(CCN(C(=O)c3cccc4cn[nH]c34)CC1)O2` [Ex. H16], the IC50 stood at 1620 nM. This IC50 is about 15-fold higher than that of the compound before.
Same read-out and setting: to `Cc1cc(C(=O)N2CCC3(CC2)CC(=O)c2cc(C#N)ccc2O3)cc2cn[nH]c12` [Ex. A31, 1′-[(7-methyl-1H-indazol-5-yl)carbonyl]-4-oxo-3,4-dihydrospiro[chromene-2,4-piperidine]+carbonitrile] belongs 234 nM.

Staying with this assay, now noted: Table of Examples M1-M36.
As for `COc1cccc2c1C(=O)CC1(CCN(C(=O)c3cccc(-c4cc[nH]n4)c3)CC1)O2` [Ex. M27, 5-methoxy-1′-[3-(1H-pyrazol-3-yl)benzoyl]spiro[chromene-2,4′-piperidin]-4(3H)-one], the half-maximal inhibitory concentration (IC50) was determined as 545 nM.
The same measure, in the same setting: the same measure for `O=C1CC2(CCN(C(=O)c3cccc(-c4cc[nH]n4)c3)CC2)Oc2c(Cl)cc(Cl)cc21` [Ex. M35, 6,8-dichloro-1′-[3-(1H-pyrazol-3-yl)benzoyl]spiro[chromene-2,4′-piperidin]-4(3H)-one]: 1400 nM; for `O=C1CC2(CCN(C(=O)c3cccc(-c4cc[nH]n4)c3)CC2)Oc2cc(F)ccc21` [Ex. M34, 7-Fluoro-1′-[3-(1H-pyrazol-3-yl)benzoyl]spiro[chromene-2,4′-piperidin]-4(3H)-one]: 817 nM.

Staying with this assay, now noted: Table of Examples O1-O4.
With `COc1cc(Cl)c2c(c1)OC1(CCN(C(=O)c3cccc(-c4ccn[nH]4)c3)CC1)CC2=O` [Ex. O2, 5-chloro-7-methoxy-1′-[3-(1H-pyrazol-5-yl)benzoyl]spiro[chromene-2,4′-piperidin]-4(3H)-one], the IC50 was 55 nM.

The same assay, now with this note: Table of Examples P1-P15.
For the compound `Cc1cc2c(cc1C)C(=O)CC1(CCN(C(=O)c3cccc(-c4ccncn4)c3)CC1)O2` [Ex. P13, 6,7-Dimethyl 1′-[3-(pyrimidin-4-yl)benzoyl]spiro[chromene-2,4′-piperidin]-4(3H)-one], the 50% inhibitory concentration (IC50) is below 3000 nM.
Still for that read-out and setting: the same measure for `Cc1cc2c(cc1C)C(=O)CC1(CCN(C(=O)c3cccc(-c4ncc[nH]4)c3)CC1)O2` [Ex. P12, 1′-[3-(1H-imidazol-2-yl)benzoyl]-6,7-dimethylspiro[chromene-2,4′-piperidin]-4(3H)-one trifluoroacetic acid salt]: 73.9 nM.
